Data from patent publication US20260183302A1, “PDK1 REGULATORY COMPOUND AND COMPOSITION CONTAINING THE SAME” (PROVIBIO CO., LTD., priority 2024, published 2026).

Test system: T cells isolated from mouse spleens
Experiment: T cell proliferation inhibition (CFSE flow cytometry, anti-CD3/anti-CD28 stimulation)
Format: cell-based, C57BL/6 mice
Details: three days
Method: To verify the T cell proliferation inhibitory effect of the compounds according to the present invention, the following experiment was performed based on flow cytometry analysis using carboxyfluorescein diacetate succinimidyl ester (CFSE), a fluorescent dye that binds to intracellular molecules via covalent bonds.
Spleens were extracted from 7-week-old C57BL/6 mice, ground, and then separated into single cells using a strainer (40 μm pore size, SPL). Red blood cells were removed using ACK (Ammonium-Chloride-Potassium) lysis buffer to isolate white blood cells.
Finally, using a MACS Magnetic Stand and LS column, T cells were isolated from the spleen.
The T cells isolated from the spleen were resuspended in 1 mL of free medium (RPMI-1640+200 U/mL penicillin+200 μg/mL streptomycin), and 0.3 μL of CFSE (10 mM) was added. The mixture was incubated at 37° C. for 5 minutes.
Free medium (10 mL) was added to stop the reaction, and the cells were centrifuged to obtain the cell pellet.
RPMI 1640 medium containing 10% FBS, 100 U/mL penicillin, 100 μg/mL streptomycin, and resuspended the cells. The cells were then seeded into a 96-well plate at a density of 2× 10^5 cells per well and activated with CD3 and CD28 antibodies (0.5 μg/mL each) to activate T cells.
The compound diluted in DMSO was added at concentrations of 10 nM, 100 nM, 1 μM, 10 μM, 30 μM, and 50 μM, with three wells per concentration, and cultured at 37° C. and 5% CO2 for three days. The cells were then analyzed using a FACS Canto instrument.
The proliferation inhibition rate (%) was calculated using the following formula: […]

Row | SMILES | Proliferation inhibition rate (%) (concentration 10 nM) | Proliferation inhibition rate (%) (concentration 100 nM) | Proliferation inhibition rate (%) (concentration 1 μM) | Proliferation inhibition rate (%) (concentration 10 μM) | Proliferation inhibition rate (%) (concentration 30 μM) | Proliferation inhibition rate (%) (concentration 50 μM) | further results
1 | Nc1ncccc1C(=O)NCCCN1CCOCC1 [Compound 78, 2-amino-N-(3-morpholin-4-yl-propyl) nicotinamide] | −7.14% | −4.19% | −3.73% | 0.68% | 4.51% | 8.76% | –
2 | Nc1ncccc1C(=O)NCCCCCCCCCCCCN1CCC(O)CC1 [Compound 48, 2-Amino-N-(12-(4-hydroxypiperidin-1-yl)dodecyl) nicotinamide] | – | 100.00% | 100.00% | 100.00% | 100.00% | 100.00% | –
3 | CC(C)(C)OC(=O)NC1CCN(CCCCCCCCCCCCNC(=O)c2cccnc2N)CC1 [Compound 101, tert-Butyl (1-(12-(2-aminonicotinamido)dodecyl)piperidin-4-yl) carbamate] | −0.15% | 100.00% | 100.00% | 100.00% | 100.00% | 100.00% | –
4 | Nc1ncccc1C(=O)NCCCCCCCCCCCCNC1CCOC1 (stereo not drawn) [Compound 128, 2-amino-N-(12-((tetrahydrofuran-3-yl)amino)dodecyl) nicotinamide] | – | 100.00% | 100.00% | 100.00% | 100.00% | 100.00% | –
5 | COc1ccc(C(=O)NCCCCCCCCCCCCN2CCN(C)CC2)nc1 [Compound 204, 5-methoxy-N-(12-(4-methylpiperazin-1-yl)dodecyl) picolinamide] | −2.60% | −0.14% | 12.30% | 95.01% | 100.00% | 100.00% | –
6 | CC1CN(CCCCCCCCCCCCNC(=O)c2cccnc2N)C(C)CN1.Cl (stereo not drawn) [Compound 36, 2-Amino-N-(12-(2,5-dimethylpiperazin-1-yl)dodecyl) nicotinamide hydrochloride] | – | 100.00% | 100.00% | 100.00% | 100.00% | 100.00% | –
7 | Nc1ncccc1C(=O)NCCCCCCCCCCCCN1CCC2CCCCC2C1 (stereo not drawn) [Compound 16, 2-Amino-N-(12-(octahydroisoquinolin-2 (1H)-yl)dodecyl) nicotinamide] | – | – | 100.00% | 100.00% | 100.00% | 100.00% | –
8 | CN1CCN(CCCCCCCCCCCCNC(=O)c2ccncc2Cl)CC1 [Compound 199, 3-Chloro-N-(12-(4-methylpiperazin-1-yl)dodecyl) isonicotinamide] | 0.00% | 0.00% | 0.00% | 40.00% | 100.00% | 100.00% | –
9 | CC(C)N1CCN(CCCCCCCCCCCCNC(=O)c2cccnc2N)CC1 [Compound 104, 2-Amino-N-(12-(4-isopropylpiperazin-1-yl)dodecyl) nicotinamide] | 100.00% | 100.00% | 100.00% | 100.00% | 100.00% | 100.00% | –
10 | COC1CCN(CCCCCCCCCCCCNC(=O)c2cccnc2N)CC1 [Compound 94, 2-amino-N-(12-(4-methoxypiperidin-1-yl)dodecyl) nicotinamide] | – | 100.00% | 100.00% | 100.00% | 100.00% | 100.00% | –
11 | CN1CCN(CCCCCCCCCCCCNC(=O)c2c(Cl)cncc2Cl)CC1 [Compound 201, 3,5-Dichloro-N-(12-(4-methylpiperazin-1-yl)dodecyl) isonicotinamide] | 7.24% | 6.66% | 8.54% | 78.44% | 100.00% | 100.00% | –
12 | CN1CCN(CCCCCCCCCCCCNC(=O)c2ccncc2N)CC1 [Compound 209, 3-Amino-N-(12-(4-methylpiperazin-1-yl)dodecyl) isonicotinamide] | −1.45% | 1.59% | 18.81% | 84.52% | 100.00% | 100.00% | –
13 | Nc1ncccc1C(=O)NCCCCCCCCCCCCN1CCOC1=O [Compound 127, 2-amino-N-(12-(2-oxooxazolidin-3-yl)dodecyl) nicotinamide] | – | – | – | 100.00% | 100.00% | 100.00% | –
14 | Nc1ncccc1C(=O)NCCCCCCCCCCCCN1CCc2ccccc2C1 [Compound 17, 2-Amino-N-(12-(3,4-dihydroisoquinolin-2 (1H)-yl)dodecyl) nicotinamide] | – | – | – | – | – | – | Proliferation inhibition rate (%) (concentration 10 nM, listed as PBK-2024-004, 0.01 µM): 0.00%; Proliferation inhibition rate (%) (concentration 100 nM, listed as PBK-2024-004, 0.1 µM): −14.00%; Proliferation inhibition rate (%) (concentration 1 μM, listed as PBK-2024-004, 1 µM): 100.00%; Proliferation inhibition rate (%) (concentration 10 μM, listed as PBK-2024-004, 10 µM): 100.00%
15 | CC(C)(C)OC(=O)N1CCN(CCCCCCCCCCCCNC(=O)c2cccnc2N)CC1 [Compound 111, tert-butyl-4-(12-(2-aminonicotinamido)dodecyl) piperazine-1-carboxylate] | 0.00% | 100.00% | 100.00% | 100.00% | 100.00% | 100.00% | –
16 | COC(=O)C1CCN(CCCCCCCCCCCCNC(=O)c2cccnc2N)C1 (stereo not drawn) [Compound 116, Methyl-1-(12-(2-aminonicotinamido)dodecyl)pyrrolidine-3-carboxylate] | – | – | – | – | – | – | inhibition at 0.01 µM (Mus musculus, T-cell, 72 h, concentration 10 nM, read-out: Proliferation inhibition rate (%)): -1.9%; inhibition at 0.1 µM (Mus musculus, T-cell, 72 h, concentration 100 nM, read-out: Proliferation inhibition rate (%)): 26.2%; inhibition at 1 µM (Mus musculus, T-cell, 72 h, concentration 1 μM, read-out: Proliferation inhibition rate (%)): 100%; inhibition at 10 µM (Mus musculus, T-cell, 72 h, concentration 10 μM, read-out: Proliferation inhibition rate (%)): 100%; inhibition at 30 µM (Mus musculus, T-cell, 72 h, concentration 30 μM, read-out: Proliferation inhibition rate (%)): 100%; inhibition at 50 µM (Mus musculus, T-cell, 72 h, concentration 50 μM, read-out: Proliferation inhibition rate (%)): 100%
17 | Cc1ccc(C(=O)NCCCCCCCCCCCCN2CCN(C)CC2)nc1 [Compound 202, 5-Methyl-N-(12-(4-methylpiperazin-1-yl)dodecyl) picolinamide] | 4.05% | 13.17% | 18.96% | 100.00% | 100.00% | 100.00% | –
18 | CC(C)(C)OC(=O)N[C@@H]1CCCN(CCCCCCCCCCCCNC(=O)c2cccnc2N)C1 [Compound 117, tert-butyl-(R)-(1-(12-(2-aminonicotinamido)dodecyl)piperidin-3-yl) carbamate] | – | 100.00% | 100.00% | 100.00% | 100.00% | 100.00% | –
19 | Nc1ncccc1C(=O)NCCCCCCCCCCCCN1CCN(C=O)CC1 [Compound 97, 2-amino-N-(12-(4-formylpiperazin-1-yl)dodecyl) nicotinamide] | – | – | 100.00% | 100.00% | 100.00% | 100.00% | –
20 | CN1CCN(CCCCCCCCCCCCNC(=O)c2ccnc(Cl)c2Cl)CC1 [Compound 198, 2,3-Dichloro-N-(12-(4-methylpiperazin-1-yl)dodecyl) isonicotinamide] | 5.35% | 9.41% | 20.12% | 100.00% | 100.00% | 100.00% | –
21 | CN(CCCCCCCCCCCCNC(=O)c1cccnc1N)C(C)(C)C [Compound 53, 2-Amino-N-(12-(tert-butyl(methyl)amino)dodecyl) nicotinamide] | – | 100.00% | 100.00% | 100.00% | 100.00% | 100.00% | –
